Patent US20100267561A1, “HERBICIDAL PYRIDAZINONE DERIVATIVES” (priority 2007, published 2010)

Key:
Format in all cases: in vivo
[1] = system: guineagrass (Panicum maximum); test: Test E pre-/postemergence plant response; details: scale 0 to 100
Method in brief: (§1)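 Plant response was judged by eye relative to controls, 0 meaning no effect and 100 complete control, after 14 to 21 days under greenhouse conditions. Compound was formulated in a non-phytotoxic solvent mixture with surfactant.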

[2] = system: goosegrass (Eleusine indica); test: Test E pre-/postemergence plant response; details: scale 0 to 100
Method in brief: as §1

[3] = system: barnyardgrass (Echinochloa crus-galli); test: Test E pre-/postemergence plant response; details: scale 0 to 100
Method in brief: as §1

[4] = system: southern (S.) sandbur (Cenchrus echinatus); test: Test E pre-/postemergence plant response; details: scale 0 to 100
Method in brief: as §1

[5] = system: dallisgrass (Paspalum dilatatum); test: Test E pre-/postemergence plant response; details: scale 0 to 100
Method in brief: as §1

[6] = system: black mustard (Brassica nigra); test: Test E pre-/postemergence plant response; details: scale 0 to 100
Method in brief: as §1

[7] = system: common purslane (Portulaca oleracea); test: Test E pre-/postemergence plant response; details: scale 0 to 100
Method in brief: as §1

canola (Brassica rapa) = test: Test C pre-/postemergence plant response
Method in brief: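 Formulated in a surfactant-containing non-phytotoxic solvent, compounds were tested under controlled growth conditions as preemergence and postemergence treatments. Ratings from 0 (no effect) to 100 (complete control) were assigned visually relative to controls 15 to 25 days later.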

[8] = system: canarygrass (Phalaris minor); test: Test A pre-/postemergence plant response
Method in brief: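 Greenhouse pot test: loam–sand soil; pre- and postemergence sprays applied same day; post plants 2–10 cm, 1–2 leaves. Readout ~10 d, visual % injury vs untreated (0 = none, 100 = complete control).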

[9] = Preemergence, 8 g ai/ha, scale 0 to 100 (0 no effect, 100 complete control)
[10] = Preemergence, 62 g ai/ha, scale 0 to 100, 0 no effect, 100 complete control
[11] = Postemergence, 31 g ai/ha, 0 to 100 scale (0 no effect, 100 complete control)
[12] = Postemergence, 125 g ai/ha, 0 to 100 scale, 0 no effect, 100 complete control
[13] = Preemergence, 31 g ai/ha, 0 to 100 scale, 0 is no effect, 100 is complete control
[14] = Preemergence, 125 g ai/ha, 0 to 100 scale (0 no effect, 100 complete control)

CCc1cc(-c2ccc(Cl)cc2)nn1-c1c(OC(=O)C(C)(C)C)cnn(C)c1=O [Compound 40]
Plant response rating, Guineagrass ([1]; 16 g ai/ha, Preemergence): 100 | Plant response rating, Guineagrass ([1]; 31 g ai/ha, Preemergence): 100 | Plant response rating, Guineagrass ([1]; 62 g ai/ha, Preemergence): 100 | Plant response rating, Guineagrass ([1]; Postemergence, 8 g ai/ha): 80 | Plant response rating, Guineagrass ([1]; Postemergence, 16 g ai/ha): 90 | Plant response rating, Guineagrass ([1]; Postemergence, 31 g ai/ha): 95 | Plant response rating, Guineagrass ([1]; Postemergence, 62 g ai/ha): 100 | Plant response rating, Goosegrass ([2]; 8 g ai/ha, Preemergence): 75 | Plant response rating, Goosegrass ([2]; 16 g ai/ha, Preemergence): 98 | Plant response rating, Goosegrass ([2]; 31 g ai/ha, Preemergence): 100 | Plant response rating, Goosegrass ([2]; 62 g ai/ha, Preemergence): 100 | Plant response rating, Goosegrass ([2]; Postemergence, 8 g ai/ha): 65 | Plant response rating, Goosegrass ([2]; Postemergence, 16 g ai/ha): 65 | Plant response rating, Goosegrass ([2]; Postemergence, 31 g ai/ha): 80 | Plant response rating, Goosegrass ([2]; Postemergence, 62 g ai/ha): 95 | Plant response rating, Barnyardgrass ([3]; 8 g ai/ha, Preemergence): 75 | Plant response rating, Barnyardgrass ([3]; 16 g ai/ha, Preemergence): 95 | Plant response rating, Barnyardgrass ([3]; 31 g ai/ha, Preemergence): 100 | Plant response rating, Barnyardgrass ([3]; 62 g ai/ha, Preemergence): 100 | Plant response rating, Barnyardgrass ([3]; Postemergence, 8 g ai/ha): 100 | Plant response rating, Barnyardgrass ([3]; Postemergence, 16 g ai/ha): 100 | Plant response rating, Barnyardgrass ([3]; Postemergence, 31 g ai/ha): 100 | Plant response rating, Barnyardgrass ([3]; Postemergence, 62 g ai/ha): 100 | Plant response rating, Sandbur, S. ([4]; 16 g ai/ha, Preemergence): 98 | Plant response rating, Sandbur, S. ([4]; 31 g ai/ha, Preemergence): 100 | Plant response rating, Sandbur, S. ([4]; 62 g ai/ha, Preemergence): 100 | Plant response rating, Sandbur, S. ([4]; Postemergence, 8 g ai/ha): 75 | Plant response rating, Sandbur, S. ([4]; Postemergence, 16 g ai/ha): 85 | Plant response rating, Sandbur, S. ([4]; Postemergence, 31 g ai/ha): 95 | Plant response rating, Sandbur, S. ([4]; Postemergence, 62 g ai/ha): 100 | Plant response rating, Dallisgrass ([5]; 8 g ai/ha, Preemergence): 80 | Plant response rating, Dallisgrass ([5]; 16 g ai/ha, Preemergence): 95 | Plant response rating, Dallisgrass ([5]; 31 g ai/ha, Preemergence): 100 | Plant response rating, Dallisgrass ([5]; 62 g ai/ha, Preemergence): 100 | Plant response rating, Dallisgrass ([5]; Postemergence, 8 g ai/ha): 65 | Plant response rating, Dallisgrass ([5]; Postemergence, 16 g ai/ha): 75 | Plant response rating, Dallisgrass ([5]; Postemergence, 31 g ai/ha): 80 | Plant response rating, Dallisgrass ([5]; Postemergence, 62 g ai/ha): 95 | Plant response rating, Mustard, Black ([6]; 8 g ai/ha, Preemergence): 0 | Plant response rating, Mustard, Black ([6]; 16 g ai/ha, Preemergence): 0 | Plant response rating, Mustard, Black ([6]; 31 g ai/ha, Preemergence): 0 | Plant response rating, Mustard, Black ([6]; 62 g ai/ha, Preemergence): 0 | Plant response rating, Mustard, Black ([6]; Postemergence, 8 g ai/ha): 0 | Plant response rating, Mustard, Black ([6]; Postemergence, 16 g ai/ha): 0 | Plant response rating, Mustard, Black ([6]; Postemergence, 31 g ai/ha): 0 | Plant response rating, Mustard, Black ([6]; Postemergence, 62 g ai/ha): 0 | Plant response rating, Purslane ([7]; 16 g ai/ha, Preemergence): 0 | Plant response rating, Purslane ([7]; 31 g ai/ha, Preemergence): 0 | Plant response rating, Purslane ([7]; 62 g ai/ha, Preemergence): 0 | Plant response rating, Purslane ([7]; Postemergence, 8 g ai/ha): 0 | Plant response rating, Purslane ([7]; Postemergence, 16 g ai/ha): 0 | Plant response rating, Purslane ([7]; Postemergence, 31 g ai/ha): 0 | Plant response rating, Purslane ([7]; Postemergence, 62 g ai/ha): 0

CCc1cc(-c2ccc(Cl)cc2)nn1-c1c(OC(=O)OC(C)C)cnn(C)c1=O [Compound 41]
Plant response rating, Canola (canola (Brassica rapa); [9]): 0 | Plant response rating, Canola (canola (Brassica rapa); Preemergence, 16 g ai/ha, scale 0 to 100 (0 no effect, 100 complete control)): 0 | Plant response rating, Canola (canola (Brassica rapa); Preemergence, 31 g ai/ha, scale 0 to 100 (0 no effect, 100 complete control)): 0 | Plant response rating, Canola (canola (Brassica rapa); [10]): 0

Cc1cc(-c2ccc(Cl)cc2)nn1-c1c(OC(=O)OCC(C)C)cnn(C)c1=O [Compound 57]
Plant response rating, Canola (canola (Brassica rapa); Postemergence, 8 g ai/ha, scale 0 to 100, 0 no effect, 100 complete control): 0 | Plant response rating, Canola (canola (Brassica rapa); Postemergence, 16 g ai/ha, scale 0 to 100, 0 no effect, 100 complete control): 0 | Plant response rating, Canola (canola (Brassica rapa); Postemergence, 31 g ai/ha, scale 0 to 100, 0 no effect, 100 complete control): 0 | Plant response rating, Canola (canola (Brassica rapa); Postemergence, 62 g ai/ha, scale 0 to 100, 0 no effect, 100 complete control): 0 | Plant response rating, Canola (canola (Brassica rapa); [9]): 0 | Plant response rating, Canola (canola (Brassica rapa); [10]): 0

COCc1cc(-c2ccc(Br)cc2)nn1-c1c(O)cnn(C)c1=O [Compound 68]
Plant response rating, Canarygrass [8, 11]: 0 | Plant response rating, Canarygrass [8, 12]: 40 | Plant response rating, Canarygrass [8, 13]: 0 | Plant response rating, Canarygrass [8, 14]: 20

Cc1cc(-c2ccc(Cl)cc2)nn1-c1c(OC(=S)N(C)C)cnn(C)c1=O [Compound 69]
Plant response rating, Canarygrass [8, 11]: 0 | Plant response rating, Canarygrass [8, 12]: 80 | Plant response rating, Canarygrass [8, 14]: 80

Cc1nn(C)c(=O)c(-n2nc(-c3ccc(C(F)(F)F)cc3)cc2C)c1O [Compound 75, 5-hydroxy-2,6-dimethyl-4-[5-methyl-3-[4-(trifluoromethyl)phenyl]-1H-pyrazol-1-yl]-3(2H)-pyridazinone]
Plant response rating, Canarygrass [8, 11]: 10 | Plant response rating, Canarygrass [8, 12]: 80 | Plant response rating, Canarygrass [8, 13]: 10 | Plant response rating, Canarygrass [8, 14]: 80
